Measured values from patent publication US8987193B2, “Nisin derivatives and the use thereof” (University College Cork—National University of Ireland, Cork, priority 2008, dated 2015).
Ends that are not written are not given here.

Legend:
Experiment in all cases: Deferred antagonism assay
Type in all cases: cell-based
[1] = test system: Listeria monocytogenes F2365; details: nisin strain; L. monocytogenes F2365
Description: (§1) Deferred antagonism assays were performed by replicating strains on GM17 or GM17 x-gal agar plates and allowing them to grow overnight before overlaying with either GM17/BHI/TS/MH agar (0.75% w/v agar) seeded with the appropriate indicator strain. Zone size was calculated as the diameter of the zone of clearing minus the diameter of bacterial growth (5 mm) For higher throughput screening of N20PXX, XM21VX, XXK22T and XXX banks deferred antagonism assays were performed by replicating strains using a 96 pin replicator (Boekel) or spotting 5 μl of a fresh overnight culture on GM17 agar plates and allowing them to grow overnight. […] Additional sets of indicators were employed to further assess/reassess the bioactivity of a number of strains. […] For well-diffusion assays molten agar was cooled to 48° C. and seeded with the appropriate indicator strain. The inoculated medium was rapidly transferred into sterile Petri plates in 50 ml volumes, allowed to solidify and dried. Wells (4.6 mm in diameter) were then made in the seeded plates. Purified nisin and mutant nisins were resuspended in 0.005% acetic acid, serially diluted, 50 μl volumes were dispensed into the aforementioned wells and the plates incubated at 37° C. overnight. Bioactivity was expressed as arbitrary units/ml (AU/ml) and calculated as the reciprocal of the highest dilution that gave a definite zone multiplied by the conversion factor (i.e. 20 when 50 μl was used) (Ryan et al., 1996).

[2] = test system: Listeria monocytogenes 33225; details: nisin strain; L. monocytogenes 33225
Description: as §1

[3] = test system: Listeria monocytogenes 33013; details: nisin strain; L. monocytogenes 33013
Description: as §1

[4] = test system: Listeria monocytogenes 33176; details: nisin strain; L. monocytogenes 33176
Description: as §1

[5] = test system: Listeria monocytogenes 33116; details: nisin strain; L. monocytogenes 33116
Description: as §1

[6] = test system: Listeria monocytogenes 33186; details: nisin strain; L. monocytogenes 33186
Description: as §1

Listeria innocua FH2117 = details: nisin strain
Description: as §1

[7] = test system: Listeria monocytogenes SLCC 4949; details: nisin strain; L. monocytogenes SLCC 4949
Description: as §1

NisinA K22A (ITSISLCTPGCKTGALMGCNMATATCHCSIHVSK; not fully specified; also: lantibiotic: lanthionine rings and dehydro residues not placed; UniProt P13068 24-57, looked up, variant K22A) [nisin A derivative, hinge substitution K22A]
Activity score (zone) [1]: + (+, 1-5 mm zone) | Activity score (zone) [2]: + (+, 1-5 mm zone) | Activity score (zone) [3]: + (+, 1-5 mm zone) | Activity score (zone) [4]: + (+, 1-5 mm zone) | Activity score (zone) [5]: + (+, 1-5 mm zone) | Activity score (zone) [6]: + (+, 1-5 mm zone) | Activity score (zone) (Listeria innocua FH2117): + (+, 1-5 mm zone) | Activity score (zone) [7]: + (+, 1-5 mm zone)

NisinA M21G (ITSISLCTPGCKTGALMGCNGKTATCHCSIHVSK; not fully specified; also: lantibiotic: lanthionine rings and dehydro residues not placed; UniProt P13068 24-57, looked up, variant M21G) [nisin A derivative, hinge substitution M21G]
Activity score (zone) [1]: + (+, 1-5 mm zone) | Activity score (zone) [2]: + (+, 1-5 mm zone) | Activity score (zone) [3]: + (+, 1-5 mm zone) | Activity score (zone) [4]: + (+, 1-5 mm zone) | Activity score (zone) [5]: + (+, 1-5 mm zone) | Activity score (zone) [6]: + (+, 1-5 mm zone) | Activity score (zone) (Listeria innocua FH2117): + (+, 1-5 mm zone) | Activity score (zone) [7]: + (+, 1-5 mm zone)

NisinA M21I (ITSISLCTPGCKTGALMGCNIKTATCHCSIHVSK; not fully specified; also: lantibiotic: lanthionine rings and dehydro residues not placed; UniProt P13068 24-57, looked up, variant M21I) [nisin A derivative, hinge substitution M21I]
Activity score (zone) [1]: + (+, 1-5 mm zone) | Activity score (zone) [2]: + (+, 1-5 mm zone) | Activity score (zone) [3]: + (+, 1-5 mm zone) | Activity score (zone) [4]: + (+, 1-5 mm zone) | Activity score (zone) [5]: ++ (++, 6-10 mm zone) | Activity score (zone) [6]: + (+, 1-5 mm zone) | Activity score (zone) (Listeria innocua FH2117): + (+, 1-5 mm zone) | Activity score (zone) [7]: + (+, 1-5 mm zone)

NisinA M21S (ITSISLCTPGCKTGALMGCNSKTATCHCSIHVSK; not fully specified; also: lantibiotic nisin: dehydrated residues and thioether rings not placed; UniProt P13068 24-57, looked up, variant M21S) [nisin A derivative, hinge substitution M21S]
Activity score (zone) [1]: ++ (++, 6-10 mm zone) | Activity score (zone) [2]: ++ (++, 6-10 mm zone) | Activity score (zone) [3]: + (+, 1-5 mm zone) | Activity score (zone) [4]: ++ (++, 6-10 mm zone) | Activity score (zone) [5]: ++ (++, 6-10 mm zone) | Activity score (zone) [6]: + (+, 1-5 mm zone) | Activity score (zone) (Listeria innocua FH2117): + (+, 1-5 mm zone) | Activity score (zone) [7]: + (+, 1-5 mm zone)
